Experimental data published in patent US20130142734A1, “TARGETED DELIVERY SYSTEMS FOR DIAGNOSTIC APPLICATIONS” (priority 2010, published 2013).
“And” between values parts separate entries of the source, which are not always exact repeats. Equal values may be shown once. Blank lines part the entries; values can stand above or below the molecule they belong to. Ends that are not written are not given here.

Assays:
[1] = Emission spectrum and fluorescence intensity of NIR dyes; assay type: physicochemical; details: excitation at 650 nm
Procedure: FIG. 1 depicts the emission spectrum for NIR Dyes (ICG, IR-783, and 783-S-Ph-COOH) following excitation at 650 nm (A) and 690 nm (B).
Fluorescence intensity of the NIR dyes was evaluated as well, following excitation at 650 nm (FIG. 2A).

P-(GGFLGK-IR783)2.5% = tested on: T1, P-(GGFLGK-IR783)2.5%
T1 sequence: GGFLGK

P-(GGFLGK-IR783)5% = tested on: T2, P-(GGFLGK-IR783)5%
T2 sequence: GGFLGK

P-(GGFLGK-IR783)7.5% = tested on: T3, P-(GGFLGK-IR783)7.5%
T3 sequence: GGFLGK

[2] = Effect of dye loading on fluorescence intensity and quenching of HPMA copolymer-IR783 conjugates; assay type: physicochemical; details: dissolved in DDW; Ex: 690 nm, Em: 820 nm
Procedure: HPMA conjugates of various IR-783-S-Ph-COOH loadings were dissolved in DDW and their fluorescence intensity (Ex: 690 nm, Em: 820 nm). […] These observations confirm the decrease in fluorescence intensity with increasing the loading of IR-783-S-Ph-COOH on p-HPMA copolymer due to the quenching of fluorescent signal.
The effect of NIR813 loading on p-HPMA-NIR813 quenching efficiency is shown in FIG. 3 and a complete quenching was achieved when the loading level of IR-783 on P—HPMA-IR-783 was 15%.

Cathepsin B = Cathepsin B (Homo sapiens, UniProt P07858); assay: Cathepsin B degradation of the linker (fluorescence activation); assay type: biochemical; details: after 22 h of incubation; Cathepsin B 1.5 U, sodium acetate buffer pH 5.5
Procedure: 0.5 mg polymer was dissolved in 1 ml sodium acetate buffer (pH=5.5). Cathepsin B (1.5 U) was added to the solution and incubate for 24 hours at 370 C. The fluorescence intensity (excitation 650 nm & 690 nm, emission range 820 nm) was measured every 30 minutes.
The effects of IR-783-S-Ph-COOH loading on CB mediated fluorescence activation was tested.

SW-480 cells [3] = assay: Imaging of orthotopically implanted SW-480 colon tumors in nu/nu athymic mice; assay type: in vivo; details: for time post injection of accumulation in tumor area: 2 mg i.v., orthotopic SW-480 tumors
Procedure: Three types of mouse models were employed to test the ability of the probes to detect solid tumors in the GI tract.
Nu/nu athymic mice were injected orthotopically into the descending colon of female with SW-480 cells. After tumors reached ˜0.5 cm in diameter, mice were injected i.v. with 2 mg of IR-783 bearing polymeric probe. The results in the orthotopically implanted tumors confirm the accumulation of both P-(GGFLGK (SEQ ID NO: 11)-IR783)2.5% and P-(GGFLGK (SEQ ID NO: 11)-IR783)7.5% polymeric probes in tumor area about 4 h post injection and retention at the tumor site for at least 48 h.
Biodistribution analysis indicated the presence of the probe in the tumor, kidneys, galbladder and the urine. The T/B ratio following whole body imaging (WBI) was 2.4 in mice treated with P-(GGFLGK (SEQ ID NO: 11)-IR783)7.5%, 4 h post injection (FIG. 6). […] The calculated ratio of the average fluorescence efficiency between colon and tumor tissue was ˜9 (FIG. 7).

SW-480 cells [4] = assay: Imaging of rectally implanted SW-480 tumors in female mice; assay type: in vivo
Procedure: The ability of the probe to detect solid tumors in female mice bearing rectally tumors injected with SW-480 cells was tested. The mice were injected with 0.2 mg/200 μl of P-(GGFLGK (SEQ ID NO: 11)-IR783)2.5% and the whole body was imaged 4 and 24 h post injection. […] However images from excised organs taken 24 h post injection indicated a 4-fold increase in the average fluorescence efficiency between colon and tumor tissue (FIG. 8A).

HT-29 cells = assay: Imaging of rectal HT-29 tumors in female mice; assay type: in vivo
Procedure: The ability of the probe to detect solid tumors in female mice bearing rectal tumors introduced via injection with HT-29 cells was also evaluated. After tumors reached ˜0.5 cm in diameter, mice were injected i.v. with 2 mg of IR-783 bearing polymeric probe. Mice were kept in metabolic cages throughout the experiment (48 h). The mice were injected with 1 mg/200 μl of P-(GGFLGK (SEQ ID NO: 11)-IR783)7.5% (CB cleavable linker) and the whole body was imaged 4, 24 and 48 h post injection. […] In images from excised organs taken 24 h post injection indicated only 1.5-fold increase in the average fluorescence efficiency between colon and tumor tissue (T/C) (1.64 and 1.3-fold of increase, FIG. 9b and FIG. 10b, respectively), due to the high background fluorescence along the gastrointestinal tract (stomach, colon and […]), even though treated in metabolic cages. Once the tumor to heart ratio (T/H) was measured, an increased of about 8-10-fold was calculated. When mice were injected with the polymeric probe with non-cleavable linker P-(AP-IR783)7.5%, and the whole body was imaged 4 post injection, the T/B ratio was 1.3.

Molecule: CC1(C)C(=CC=C2CCCC(C=CC3=[N+](CCCCS(=O)(=O)O)c4ccccc4C3(C)C)=C2Cl)N(CCCCS(=O)(=O)O)c2ccccc21.[OH-] [IR-783, 2-[2-[2-Chloro-3-[2-[1,3-dihydro-3,3-dimethyl-1-(4-sulfobutyl)-2H-indol-2-ylidene]-ethylidene]-1-cyclohexen-1-yl]-ethenyl]-3,3-dimethyl-1-(4-sulfobutyl)-3H-indolium hydroxide]
maximal emission wavelength [1]: 800 nm

Molecule: Cathepsin B
increase in signal intensity over time with Cathepsin B (P-(GGFLGK-IR783)2.5%): only 2-fold increase in signal intensity over time
increase in the (fluorescence) intensity after 22 h of incubation with Cathepsin B (P-(GGFLGK-IR783)5%): 3.6-fold
increase in the (fluorescence) intensity after 22 h of incubation with Cathepsin B (P-(GGFLGK-IR783)7.5%): 4.9-fold

Molecule: P-(GGFLGK-IR783)5%: HPMA copolymer bearing IR-783-S-Ph-COOH via degradable GGFLGK linker, 5% dye loading (not fully specified; also: conjugated to HPMA copolymer via GGFLGK linker)
increase in fluorescence intensity following CB degradation (Cathepsin B): 3.6 fold

Molecule: P-(GGFLGK-IR783)7.5%: HPMA copolymer bearing IR-783-S-Ph-COOH via degradable (CB cleavable) GGFLGK linker, 7.5% dye loading (not fully specified; also: conjugated to HPMA copolymer via GGFLGK linker)
increase in fluorescence intensity following CB degradation (Cathepsin B): 4.9 fold
time post injection of accumulation in tumor area (SW-480 cells [3]): about 4 h
T/B ratio following whole body imaging (WBI) (SW-480 cells [3]; 4 h post injection, 2 mg, FIG. 6): 2.4
ratio in the average fluorescence efficiency between colon and tumor tissue (SW-480 cells [4]; excised tumor harvested 48 h post injection, FIG. 8b): ~4
tumor accumulation with time (SW-480 cells [4]; whole body imaging): slight increase
T/B ratio in whole body imaging, 4 versus 24 h post injection (HT-29 cells; 1 mg/200 μl, HT-29 rectal model): not significantly different
increase in the average fluorescence efficiency between colon and tumor tissue (T/C) (HT-29 cells; excised organs taken 24 h post injection, 1 mg/200 μl): 1.5 fold
tumor to heart ratio (T/H) (HT-29 cells; excised organs, 1 mg/200 μl): 8-10 fold
increase in the average fluorescence efficiency between colon and tumor tissue (T/C), single figures (HT-29 cells; excised organs, FIG. 9b and FIG. 10b, respectively, listed as P-(GGFLGK (SEQ ID NO: 11)-IR783)7.5%): 1.64 fold and 1.3 fold

The next lines start with results.

maximal emission wavelength [1]: 810 nm
Molecule: CC1(C)C(/C=C/C=C/C=C/C=C2\N(CCCCS(=O)(=O)O)c3ccc4ccccc4c3C2(C)C)=[N+](CCCCS(=O)(=O)[O-])c2ccc3ccccc3c21 [ICG, indocyanine green]

maximal emission wavelength [1]: 830 nm
Molecule: CC1(C)C(/C=C/C2=C(Sc3ccc(C(=O)O)cc3)C(=C/C=C3\N(CCCCS(=O)(=O)O)c4ccccc4C3(C)C)/CCC2)=[N+](CCCCS(=O)(=O)[O-])c2ccccc21 [IR-783-S-Ph-COOH]

increase in fluorescence intensity following CB degradation (Cathepsin B): 2 fold
Molecule: P-(GGFLGK-IR783)2.5%: HPMA copolymer bearing IR-783-S-Ph-COOH via degradable GGFLGK linker, 2.5 mol % dye loading (not fully specified (N-terminus); also: IR-783-S-Ph-COOH dye attached, site not given here)
fluorescence intensity at λ=820 nm compared with copolymers of other dye loading [2]: highest fluorescence intensity
time post injection of accumulation in tumor area (SW-480 cells [3]): about 4 h
calculated ratio of the average fluorescence efficiency between colon and tumor tissue (SW-480 cells [3]; ex vivo, 48 h post injection, FIG. 7): ~9
Biodistribution analysis: accumulation (SW-480 cells [3]; mice sacrificed 48 h post injection): significant accumulation in the tumor, kidneys and gallbladder
T/B ratio in whole body imaging, 4 versus 24 h post injection (SW-480 cells [4]; 0.2 mg/200 μl): not significantly different
increase in the average fluorescence efficiency between colon and tumor tissue (SW-480 cells [4]; excised organs 24 h post injection, 0.2 mg/200 μl, FIG. 8A): 4 fold
